What was measured:
[1] = Cytotoxicity against human LNCAP cells assessed as cell viability inhibition at 10 uM after 72 hrs by Alamar blue assay; assay type: functional
[2] = Potentiation of vinblastin-induced cytotoxicity against human CEM cells at 5 uM after 72 hrs by Alamar blue assay relative to control; assay type: functional, CCRF-CEM
CCRF-CEM VCR/R = test: Inhibition of P-gp in human CCRF-CEM VCR/R cells assessed as potentiation of vinblastin-induced cytotoxicity at 5 uM after 72 hrs by Alamar blue assay relative to control; assay type: cell-based
[3] = biological target: T1, Large neutral amino acids transporter small subunit 3 (Homo sapiens, UniProt O75387); test: Inhibition of LAT3 in human LNCAP cells assessed as inhibition of [3H]L-leucine uptake after 15 mins by liquid scintillation counting method; assay type: cell-based
T1 sequence (O75387 whole entry): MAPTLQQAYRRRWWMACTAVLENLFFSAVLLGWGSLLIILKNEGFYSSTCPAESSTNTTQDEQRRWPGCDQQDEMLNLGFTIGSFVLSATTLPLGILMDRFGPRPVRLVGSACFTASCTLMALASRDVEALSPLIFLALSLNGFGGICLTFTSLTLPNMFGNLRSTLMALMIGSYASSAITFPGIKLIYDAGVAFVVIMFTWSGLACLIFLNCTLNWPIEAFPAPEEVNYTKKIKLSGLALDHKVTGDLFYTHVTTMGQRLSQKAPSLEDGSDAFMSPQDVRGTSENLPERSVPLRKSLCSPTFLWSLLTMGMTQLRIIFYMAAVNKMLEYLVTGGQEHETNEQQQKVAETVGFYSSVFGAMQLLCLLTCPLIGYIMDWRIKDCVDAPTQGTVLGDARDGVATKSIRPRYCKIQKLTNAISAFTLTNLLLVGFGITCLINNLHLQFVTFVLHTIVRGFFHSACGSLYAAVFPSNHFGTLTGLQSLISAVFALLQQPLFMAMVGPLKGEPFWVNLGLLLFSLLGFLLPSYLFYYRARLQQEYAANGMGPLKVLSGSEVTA

[4] = biological target: T2, Large neutral amino acids transporter small subunit 3 (Homo sapiens) (UniProt O75387); test: Inhibition of LAT3 in human LNCAP cells assessed as inhibition of [3H]L-leucine uptake at 10 mM after 15 mins by liquid scintillation counting method relative to control; assay type: cell-based
T2 sequence (whole entry): T1 sequence (O75387 whole entry)

[5] = biological target: T2, Large neutral amino acids transporter small subunit 3 (Homo sapiens); test: Inhibition of LAT3 in human LNCAP cells assessed as inhibition of [3H]L-leucine uptake at 10 uM after 15 mins by liquid scintillation counting method relative to control; assay type: cell-based

Row | SMILES | inhibition at 10 µM [1] [%] | fold change (FC) [2] | fold change (FC) (CCRF-CEM VCR/R) | also measured
1 | CC(=O)OC[C@@]12[C@@H](OC(C)=O)CC[C@@H](C)[C@]13OC(C)(C)[C@H]([C@@H](OC(=O)C(C)(C)C)[C@H]2OC(=O)c1ccccc1)[C@H]3OC(C)=O | 25.6 | 1.5 | 124 | 
2 | CC(=O)OC[C@@]12[C@@H](OC(C)=O)CC[C@@H](C)[C@]13OC(C)(C)[C@H]([C@@H](OC(C)=O)[C@H]2OC(=O)c1ccccc1)[C@H]3O | > 30 |  |  | 
3 | CC(=O)OC[C@@]12[C@@H](OC(C)=O)CC[C@@H](C)[C@]13OC(C)(C)[C@H](C(=O)[C@H]2OC(=O)c1ccccc1)[C@H]3OC(C)=O | > 30 | 1.9 | 50.6 | IC50 [3]: 151 µM
4 | COCC(=O)O[C@@H]1[C@@H]2[C@@H](OC(C)=O)[C@]3(OC2(C)C)[C@H](C)CC[C@H](OC(C)=O)[C@@]3(COC(C)=O)[C@@H]1OC(=O)c1ccccc1 | > 30 |  |  | 
5 | CC(=O)OC[C@@]12[C@@H](OC(C)=O)CC[C@@H](C)[C@]13OC(C)(C)[C@H]([C@@H](OC(=O)c1ccc(Br)cc1)[C@H]2OC(=O)c1ccccc1)[C@H]3OC(C)=O | > 30 |  |  | 
6 | CC(=O)OC[C@@]12[C@@H](OC(C)=O)CC[C@@H](C)[C@]13OC(C)(C)[C@H]([C@@H](OC(=O)c1ccccc1)[C@H]2OC(=O)c1ccccc1)[C@H]3OC(C)=O | 21.2 | 2.1 | 131 | 
7 | NC1(C(=O)O)CC2CCC1C2 (stereo not given) |  |  |  | inhibition [4]: 40.2%
8 | COc1ccc(CCN(C)CCCC(C#N)(c2ccc(OC)c(OC)c2)C(C)C)cc1OC (stereo not given) [VERAPAMIL] |  | 2.8 | 64.5 | inhibition [5]: 82.7%
9 | CC(=O)OC[C@@]12[C@@H](OC(C)=O)CC[C@@H](C)[C@]13OC(C)(C)[C@H](C[C@@H]2OC(=O)c1ccccc1)[C@H]3OC(C)=O | > 30 |  |  | 
10 | CC(=O)OC[C@@]12[C@@H](OC(C)=O)CC[C@@H](C)[C@]13OC(C)(C)[C@H]([C@@H](O)[C@H]2OC(=O)c1ccccc1)[C@H]3OC(C)=O | > 30 | 1.7 | 36.3 | IC50 [3]: 124 µM
11 | CC(=O)O[C@@H]1[C@@H]2[C@@H](OC(C)=O)[C@]3(OC2(C)C)[C@H](C)CC[C@H](OC(C)=O)[C@@]3(C)[C@@H]1OC(=O)c1ccccc1 | 14.6 | 2 | 61 | IC50 [3]: 15.5 µM
12 | CC(=O)OC[C@@]12[C@@H](OC(C)=O)CC[C@@H](C)[C@]13OC(C)(C)[C@H]([C@@H](O)[C@@H]2OC(=O)c1ccccc1)[C@H]3OC(C)=O | > 30 |  |  | 
13 | CC(=O)O[C@H]1CC[C@@H](C)[C@]23OC(C)(C)[C@H](C[C@H](OC(=O)c4ccccc4)[C@]12C)[C@H]3OC(C)=O | > 30 |  |  | 
14 | CC(=O)OC[C@@]12[C@@H](OC(C)=O)CC[C@@H](C)[C@]13OC(C)(C)[C@H]([C@@H](OC(C)=O)[C@H]2OC(=O)c1ccccc1)[C@H]3OC(C)=O | > 30 |  |  | 
15 | CC(=O)O[C@H]1CC[C@@H](C)[C@]23OC(C)(C)[C@H]([C@@H](O)[C@@H](OC(=O)c4ccccc4)[C@]12C)[C@H]3OC(C)=O | > 30 |  |  | 

— ChEMBL document CHEMBL3853284, “Bioactive Dihydro-β-agarofuran Sesquiterpenoids from the Australian Rainforest Plant Maytenus bilocularis” (J Nat Prod, 2016)
